# The supplement of paper PMC10307832
# Tests used:
# Assay in all cases: relative viability (nuclei count vs DMSO), 5 days (fraction); higher = more cells survive
# [1] = compound: C=CC(=O)N1CCC[C@@H](n2nc(-c3ccc(Oc4ccccc4)cc3)c3c(N)ncnc32)C1 [Ibrutinib] + Cc1cc(Nc2cc(N3CCN(C)CC3)nc(Sc3ccc(NC(=O)C4CC4)cc3)n2)n[nH]1 [Tozasertib] (partner 0.1 µM)
# How it was run: (§1)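 After 5 days of treatment, lung cancer cells in 1536-well plates were fixed and stained in a single step (final 0.05% Triton X-100, 1% formaldehyde, 1 ug/ml Hoechst) and their nuclei counted on 4× images. Treatment had been applied by pin tool the day after seeding as one drug alone or as a fixed anchor-drug dose with five library-drug doses (not always all listed) in √10 steps. Relative viability is the nuclei count of treated wells divided by that of vehicle wells, and values are medians of duplicate plates.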
# [2] = compound: C=CCc1cccc(/C=N/NC(=O)CN2CCN(Cc3ccccc3)CC2)c1O [PAC-1] + Cc1nc(Nc2ncc(C(=O)Nc3c(C)cccc3Cl)s2)cc(N2CCN(CCO)CC2)n1 [Dasatinib] (partner 0.075 µM)
# How it was run: as §1
# [3] = compound: C=CCc1cccc(/C=N/NC(=O)CN2CCN(Cc3ccccc3)CC2)c1O [PAC-1] + COc1cccc2cc(-c3nc([C@H]4CC[C@H](C(=O)O)CC4)n4ncnc(N)c34)[nH]c12 [OSI-027] (partner 0.5 µM)
# How it was run: as §1
# [4] = compound: C=CC(=O)Nc1cc(-n2c(=O)ccc3cnc4ccc(-c5ccc(NS(C)(=O)=O)cc5)cc4c32)ccc1C [BMX-IN-1] + C[C@@H](Oc1cc(-c2cnn(C3CCNCC3)c2)cnc1N)c1c(Cl)ccc(F)c1Cl [Crizotinib] (partner 1 µM)
# How it was run: as §1
cell line,measurement,setting,value
SK-MES-1,relative viability,[1]; first compound 0.005 µM,0.997
same,relative viability,[1]; first compound 0.01581 µM,0.872
same,relative viability,[1]; first compound 0.05 µM,0.965
same,relative viability,[1]; first compound 0.1581 µM,1.03
same,relative viability,[1]; first compound 0.5 µM,0.669
same,relative viability,[2]; first compound 0.02 µM,0.359
same,relative viability,[2]; first compound 0.06325 µM,0.516
same,relative viability,[2]; first compound 0.2 µM,0.371
same,relative viability,[2]; first compound 2 µM,0.401
same,relative viability,[3]; first compound 0.02 µM,0.651
same,relative viability,[3]; first compound 0.06325 µM,0.636
same,relative viability,[3]; first compound 0.2 µM,0.533
same,relative viability,[3]; first compound 2 µM,0.645
same,relative viability,[4]; first compound 0.02 µM,1.08
same,relative viability,[4]; first compound 0.2 µM,1.3
same,relative viability,[4]; first compound 0.6325 µM,1.08
same,relative viability,[4]; first compound 2 µM,1.1
